These results are taken from the METLIN SMRT retention time set (Domingo-Almenara et al. 2019).

This data set can be described thus: gradient 5% acetonitrile 3 min, to 50% in 2 min, to 85% in 15 min, held 3 min, 100 µL/min. The conditions noted are these: column: Zorbax Extend-C18 2.1 x 50 mm; eluents: water / acetonitrile, 0.1% formic acid. In outline: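 Over 3 months, pure standards in mixtures of ~100 molecules were run by HPLC coupled to a quadrupole time-of-flight mass spectrometer in positive and negative ionization mode. The column was a Zorbax Extend-C18 (2.1 × 50 mm, 1.8 μm) at 100 μL/min, eluted with water and acetonitrile each holding 0.1% formic acid, with 40 μL dead and 900 μL dwell volumes. Retention time was determined from adduct peaks chosen by software and checked manually.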
Compound `O=C(Nc1cccc(-c2cn3cccnc3n2)c1)c1ccc(F)c(F)c1` gave an RP-LC retention time of 706 s. Compound `CCOC(=O)c1ccc(N2C=C(C(=O)OC)S(=O)(=O)c3ccccc32)cc1` had an RP-LC retention time of 893 s. Consider `COCc1nc(CCNC(=O)C2CCCO2)no1` (stereo not drawn), for which the RP-LC retention time was 593 s. For the compound `O=C(Nc1ccc(SCc2nnc(-c3ccccc3)o2)cc1)C1CC1`, the RP-LC retention time is 870 s.

The compound `CCOC(=O)c1cnc2c(-c3cccc(Cl)c3)c(C)nn2c1N` displayed an RP-LC retention time of 1180 s.

For the compound `Cn1c(=O)c2c(nc3n(-c4ccccc4N)c(-c4ccc(Cl)cc4)cn23)n(C)c1=O`, the RP-LC retention time came to 883 s. Consider `Cc1ccccc1Nc1c(-c2cccc(Cl)c2)nc2ncccn12`, for which the RP-LC retention time worked out at 901 s. `CC(=O)c1ccc(NC(=O)c2nc3nc(C)cc(C(F)F)n3n2)cc1` registered an RP-LC retention time of 722 s. As to `CCCCN(CCCC)C(=O)C1CCN(S(=O)(=O)c2ccc3c(c2)CCCC(=O)N3)CC1`, the RP-LC retention time was 905 s. As to `CC1CCN(C(=O)C2CCN(S(=O)(=O)c3ccc(-c4noc(C5CC5)n4)cc3)CC2)CC1`, the RP-LC retention time turned out to be 1040 s. The compound `COCCCNC(=O)C1CC(=O)N(c2n[nH]c3cccc(F)c23)C1` (stereo not drawn) had an RP-LC retention time of 638 s. Regarding `O=C(CS(=O)Cc1cnn(-c2ccccc2)c1-n1cccc1)N1CCCCCC1` (stereo not drawn), the RP-LC retention time came to 902 s. `Cc1ccc(NC(=O)N2CCC(c3cc(N)on3)CC2)cc1F`: the RP-LC retention time was 733 s. To `CCOC(=O)c1c(C)c(C(=O)NCc2ccccc2Cl)c(C)n1CC` belongs 929 s; to `CC(C)Oc1ccc(-c2noc(Cc3nnc(-c4ccccc4)o3)n2)cc1`, 1100 s. Consider `COc1ccc(-c2c(C(=O)Nc3ccc(OC)cc3OC)nc3ccccn23)cc1`, for which the RP-LC retention time came out at 650 s. To `O=C(Cc1ccc(F)cc1)N1CCN(c2cc(-c3cccs3)[nH]n2)CC1` belongs 782 s; to `CC(C)c1ccc(OCC(=O)Nc2nnc(C3CC(=O)N(c4ccc(Cl)cc4)C3)o2)cc1` (stereo not drawn), 943 s; to `Cc1cnc(C2CN(Cc3cccc(OC(F)(F)F)c3)C2)n1CC1CC1`, 594 s. In turn, `O=C(C1=CN(c2ccccc2)c2cc(Cl)ccc2S1(=O)=O)N1CCCCC1` came in with an RP-LC retention time of 930 s. For `CC(CNC(=O)CC1CCN(S(=O)(=O)c2ccccc2)CC1)c1ccccc1` (stereo not drawn), the RP-LC retention time worked out at 866 s. Compound `Cc1ccccc1CNC(=O)C1CCCN(S(=O)(=O)c2c[nH]c(C(=O)N3CCCC3)c2)C1` (stereo not drawn) gave an RP-LC retention time of 877 s.

`Cc1ccc(CNC(=O)CN2C(=O)CCCc3cc(S(=O)(=O)N4CCCCC4)ccc32)cc1` showed an RP-LC retention time of 891 s. `Cn1cc2c(n1)c(=O)n(Cc1ccc(F)cc1)c1nn(Cc3ccccc3F)c(=O)n21` showed an RP-LC retention time of 1020 s.

`COc1cc(CNC(=O)C2CCCN(c3nccc(C)n3)C2)cc(OC)c1OC` (stereo not drawn) showed an RP-LC retention time of 655 s.

Regarding `CCc1cc(C(=O)N2CCN(CC)CC2)nc2cc(-c3ccccn3)nn12`, the RP-LC retention time amounted to 580 s. To `CN(Cc1ccc(Cl)cc1)Cc1cc(=O)n2ccccc2n1` belongs 602 s; to `Cc1ccc(-c2nc(-c3ccc4c(c3)oc(=O)n4C)no2)cc1C`, 1180 s; to `CC1=C(c2ccccc2)S(=O)(=O)N=C1N1CCCN(C(=O)c2cc(F)ccc2F)CC1`, 827 s. The compound `O=C(c1cccs1)N1CCN(c2ccc3nnc(-c4ccco4)n3n2)CC1` came in with an RP-LC retention time of 631 s. Compound `CCCS(=O)(=O)c1nc2ccc(NS(=O)(=O)c3ccc4c(c3)CCCC4)cc2s1` yielded an RP-LC retention time of 1060 s.

`CCN(CC)CCNC(=O)c1nc(-c2oc3c(C)cccc3c2C)no1` had an RP-LC retention time of 677 s. `COCCCNC(=O)c1cccnc1N1CCNC(c2ccccc2)C1` (stereo not drawn) displayed an RP-LC retention time of 578 s.
